Reference: patent US10967031B2, “Synergistic herbal compositions with prebiotic properties for treatment of skin infections, allergies and inflammation” (priority 2010, dated 2021)
Like-named read-outs stand apart in the source and are kept apart here.

Test system: IL-13 release from KU812 cells
Test: IL-13 release assay in KU812 cells (PMA + ionomycin, IL-13 ELISA)
Assay type: cell-based, human

Compound	inhibition at 10 µM (Homo sapiens, positive control 10 μM, read-out: Percentages of IL-13 inhibition) [%]	inhibition at 1 µM (Homo sapiens, 1 μM, read-out: Percentages of IL-13 inhibition) [%]	inhibition at 10 µM (Homo sapiens, 10 μM (Fistein), read-out: Percentages of IL-13 inhibition) [%]	inhibition at 100 µM (Homo sapiens, 100 μM, read-out: Percentages of IL-13 inhibition) [%]	IL-13 release / inhibition, in words (first screening (Examples 1 and 3))
C[C@@H]1C[C@H]2[C@@H]3CCC4=CC(=O)C=C[C@]4(C)[C@@]3(F)[C@@H](O)C[C@]2(C)[C@@]1(O)C(=O)CO [Dexamethasone]	52				
O=c1c(O)c(-c2ccc(O)c(O)c2)oc2cc(O)ccc12 [Fistein, Fisetin]		26.5	17.3	35.7	the inhibition percentages were relatively low
